Experimental data: patent US20220033734A1, “FABRIC CONDITIONER COMPOSITIONS” (Conopco, Inc., d/b/a UNILEVER, priority 2018, published 2022)

Tested on: Gram-negative non-fermenting bacteria: B. cepacia, P. aeruginosa, Strenotrophomonas sp
Assay: Modified challenge test in fabric conditioner, Total Viable Count pour plate: Gram-negative non-fermenting bacteria
Type: cell-based
Settings: overall statement on the challenge tests of Tables 3 and 4
Procedure: Water was heated to ˜45° C., the Cetearyl alcohol was added followed by the minors. A premix of melted quaternary ammonium active was then added and mixed. The formulation was then cooled to ˜35° C. and any remaining minors added.
Itaconic acid, lactic acid and citric acid were purchased from Sigma-Aldrich. Samples of unpreserved fabric conditioner were dosed with itaconic acid, citric acid or lactic acid separately, according to Tables 3 and 4. Each dosed product was adjusted to pH 5 using 50% sodium hydroxide (Sigma-Aldrich). An unpreserved sample was kept as a control.
A modified challenge test method was performed on samples as defined in […]. The microbial compositions comprising the bacteria listed in Tables 2 and 3 were produced with an inoculum level of 5×10^7 CFU/G in sodium chloride.
The microbial compositions were added to each fabric conditioner formulation at a ratio of 1:10 (by weight) microbial composition to fabric conditioner formulation. […]
Both the inoculum level and the level of microorganism within each sample was quantified using a Total Viable Count (TVC) pour plate method after contact times as indicated in data tables. […] Visible colonies were counted with the aid of a Quebec Colony Counter and recorded for analysis against the challenge test criteria.

C=C(CC(=O)O)C(=O)O [itaconic acid]
Preservation performance compared with other systems: out performed citric acid, lactic acid and unpreserved systems
